Test results from patent publication US20220370416A1, “COMPOUNDS AND METHODS FOR TARGETED DEGRADATION OF KRAS” (Arvinas Operations, Inc., priority 2020, published 2022).

Legend:
pErk = test: Erk signaling (pErk) during a 24 hour treatment in SW1573 cells; type: cell-based; settings: 24 hour treatment time course (FIG. 11)
KRAS^G12C = KRAS^G12C (Homo sapiens, UniProt P01116, G12C); test: KRAS^G12C degradation by immunoblot in MIA PaCa-2 cells; type: cell-based; parameters: MRTX849-VHL bifunctional compounds engage and degrade endogenous KRAS^G12C in NCI-H2030 cells; endogenous in cells; host or cells: NCI-H2030, NCI-H358, MIA PaCa-2, SW1573, NCI-H23; settings: for KRAS, two-way ANOVA significance vs DMSO: FIG. 10A
Experimental: NCI-H2030 (CRL-5914), MIA PaCa-2 (CRL-1420), NCI-H23 (CRL-5800), NCI-H358 (CRL-5807), and HCT-116 (CCL-247) cells were obtained from ATCC, expanded immediately, and frozen down. Vials were thawed and used within 20 passages. SW1573 cells were a gift from Arvinas and were handled in the same manner. NCI-H2030, NCI-H23, and NCI-H358 were cultured in RPMI (ATCC30-2001) supplemented with 10% FBS (Biological Industries; cat. no. S1480) and 1% Penicillin-Streptomycin (ThermoFisher; cat. no. 15140122). HCT-116 cells were maintained in high glucose DMEM (ThermoFisher; cat. no. 11965084) supplemented as above. MIA PaCa-2 cells were cultured in high glucose DMEM supplemented with 10% FBS, 2.5% horse serum (ThermoFisher; cat. no. 26050-088; lot 2109875), and 1% Penicillin-Streptomycin. SW1573 cells were maintained in DMEM/F12 Nutrient Mix with GlutaMAX supplement (ThermoFisher; cat. no. 10565018) with 10% FBS and 1% Penicillin-Streptomycin added. DPBS (ThermoFisher; cat. no. 14190250) was used to wash cells and 0.25% Trypsin-EDTA (ThermoFisher; cat. no. […]) was used to detach cells for passaging. […] The VHL ligand was generously provided by Arvinas.
Between 2.5×10^5 and 6.0×10^5 cells were seeded into 6-well plates (Corning; cat. no. 353046). The next day, media was removed and cells were treated with 2.5 μM LC-2 for 1, 2, 4, 8, 12, or 24 hours. […] For 24-hour time course experiments, cells were treated at the indicated times and concurrently lysed in RIPA buffer supplemented as described previously. For longer time course experiments and time courses in which cells were treated with LC-2 or LC-2 Epimer, cells were concurrently treated with either compound, then lysed by scraping in RIPA buffer at the indicated time points.
Cell lysates were clarified at 21000×g for 15 mins at 4° C. Protein levels were quantified using a 50:1 mixture of bicinchoninic acid solution (Millipore Sigma; cat. no. B9643) and 4% (w/v) copper(II) sulfate solution (Millipore Sigma; cat. no. C2284) incubated at 37° C. for 30 mins. Absorbance values at 560 nm were read on an EnVision 2101 Multilabel Reader (PerkinElmer). Proteins were separated using 26 well Criterion TGX precast 4-15% (cat. no. 5671085) or 8-16% (cat. no. 5671105) gradient midi gels. After separation, proteins were transferred to nitrocellulose or PVDF membranes at 76 V for 2 hours at 4° C. Blots were then blocked in 5% milk in tris-buffered saline with Tween-20 (TBST; 20 mM Tris, 150 mM NaCl, 0.02% Tween-20). After blocking, blots were incubated in primary antibody overnight (12-18 hours) at 4° C. or for 2 hours at room temperature with mild agitation at the manufacturer's indicated dilution in either 5% milk or 5% BSA in TBST. Blots were then washed thrice with TBST for 5 mins at room temperature. After washing, blots were incubated with 1:5,000-1:10,000 of donkey anti-rabbit (GE Life Sciences; NA934) or sheep anti-mouse (GE Life Sciences; NA931) secondary antibody diluted in 5% milk for 1 hour at room temperature with mild agitation. Blots were again washed thrice with TBST for 5 mins. Chemiluminescent signal was generated using Amersham ECL Prime Western Blotting Detection Reagant (GE Life Sciences; cat. no. RPN2232) or SuperSignal West Femto Maximum Sensitivity Substrate (ThermoFisher; cat. no. 34095). Images were obtained using a Bio-Rad ChemiDoc Imager. Fluorescent α-tubulin images were collected with the Bio-Rad ChemiDoc Imager using an Alexa488 filter. The primary antibodies used in this work include: KRAS (LSBio; clone 2C1; cat. no. LS-C175665), p-p42/44 MAPK (phospho T202/Y204) (pErk; Cell Signaling Technologies (CST); cat. no. 4370S or 9106S), p42/44 MAPK (Erk1/2; CST; cat. no. 4695S), alpha-tubulin (CST; 2144S), and alpha-tubulin w/AlexaFluor488 (Millipore; cat. no. 16-232).
Band intensities were quantified using BioRad's Image Lab Software.

SMILES: C=C(F)C(=O)N1CCN(c2nc(OC[C@@H]3CCCN3CCCOCCC(=O)N[C@H](C(=O)N3C[C@H](O)C[C@H]3C(=O)NCc3ccc(-c4scnc4C)cc3)C(C)(C)C)nc3c2CCN(c2cccc4cccc(Cl)c24)C3)C[C@@H]1CC#N [LC-2, (2S,4R)-1-((S)-2-(3-(3-((S)-2-(((7-(8-chloronaphthalen-1-yl)-4-((S)-3-(cyanomethyl)-4-(2-fluoroacryloyl)piperazin-1-yl)-5,6,7,8-tetrahydropyrido[3,4-d]pyrimidin-2-yl)oxy)methyl)pyrrolidin-1-yl)propoxy)propanamido)-3,3-dimethylbutanoyl)-4-hydroxy-N-(4-(4-methylthiazol-5-yl)benzyl)pyrrolidine-2-carboxamide]
- pErk (Erk signaling) (pErk): pErk is decreased throughout the time course
- DC50 (KRAS^G12C; MIA PaCa2, homozygous KRAS^G12C): 320 ± 80 nM
- Dmax (KRAS^G12C; MIA PaCa-2): > 75%
- duration of KRAS degradation (KRAS^G12C; MIA PaCa-2, 2.5 μM): sustained up to 72 hours
- time to maximal KRAS degradation (KRAS^G12C; MIA PaCa-2, 2.5 μM, 6, 24, 48, 72 hours): ≤ 24 h
- KRAS, two-way ANOVA significance vs DMSO (KRAS^G12C; MIA PaCa-2, 2.5 μM, 6 hours): ** (** p < 0.01)
- KRAS, two-way ANOVA significance vs DMSO (KRAS^G12C; MIA PaCa-2, 2.5 μM, 24 hours): ** (** p < 0.01)
